According to patent US7595398B2, “N-(5-membered aromatic ring)-amido anti-viral compounds” (SmithKline Beecham Corporation, priority 2005, dated 2009):
Counter-ions that a name gives are not always drawn.

system: HCV replicon I389luc-ubi-neo/NS3-3′/ET in ET (Huh-lucubineo-ET) cells; screening for HCV RNA dependent RNA polymerase; test: Replicon Assay (luciferase, ET cell line Huh-lucubineo-ET); format: cell-based; conditions: Hepatitis C virus; inhibition of replication relative to no compound control; test concentration of 10 μM according to the fitted equation; luciferase 48-72 hours
Protocol: A cell line, ET (Huh-lucubineo-ET) was used for screening of compounds of the present invention for HCV RNA dependent RNA polymerase. The ET cell line was stably transfected with RNA transcripts harboring a I389luc-ubi-neo/NS3-3′/ET; replicon with firefly luciferase-ubiquitin-neomycin phosphotransferase fusion protein and EMCV-IRES driven NS3-5B polyprotein containing the cell culture adaptive mutations (E1202G; T12801; K1846T) (Krieger at al, 2001 and unpublished). The ET cells were grown in DMEM, supplemented with 10% fetal calf serum, 2 mM Glutamine, Penicillin (100 IU/mL)/Streptomycin (100 μg/mL), 1× nonessential amino acids, and 250 μg/mL G418 (“Geneticin”). They were all available through Life Technologies (Bethesda, Md.). The cells were plated at 0.5-1.0×10^4 cells/well in the 96 well plates and incubated for 24 hrs before adding nucleoside analogs. […] Luciferase activity were measured 48-72 hours later by adding a lysis buffer and the substrate (Catalog number Glo-lysis buffer E2661 and Bright-Glo luciferase system E2620 Promega, Madison, Wis.). Cells should not be too confluent during the assay. Percent inhibition of replication was plotted relative to no compound control. Under the same condition, cytotoxicity of the compounds was determined using cell proliferation reagent, WST-1(Roche, Germany). The compounds showing antiviral activities, but no significant cytotoxicities were chosen to determine IC50 and TC50. For these determinations, 10 concentrations of each compound were used. Concentrations for test compounds typically span a range of 500 fold. IC50 and TC50 values were calculated by fitting % inhibition at each concentration (I) to the following equation: % inhibition=100%/[1+10^(log IC50−log (I))*b] where b is Hill's coefficient.

Q: For `O=C(NC1CC1)c1ccc(-c2csc(NC(=O)C3CCC[C@H]3C(=O)NCc3ccccc3)n2)cc1` (mixture of isomers) [Compound 5340, Cyclopentane-1,2-dicarboxylic acid 1-benzylamide 2-{[4-(4-cyclopropylcarbamoyl-phenyl)-thiazol-2-yl]-amide}], which inhibition at 10 µM is on record?
A: The inhibition at 10 µM was 100%.

Q: How did the inhibition at 10 µM turn out when `O=C(NC1CC1)c1ccc(-c2csc(NC(=O)C3CCCC3C(=O)NCc3ccccc3)n2)cc1` (racemic) [Compound 5382, Cyclopentane-1,2-dicarboxylic acid 1-benzylamide 2-{[4-(4-cyclopropylcarbamoyl-phenyl)-thiazol-2-yl]-amide}] was run?
A: The inhibition at 10 µM was 100%.

Q: `CC(C)CC1CC(C)(c2csc(NC(=O)[C@@H]3CCCN3C(=O)OCc3ccccc3)n2)OC1=O` (stereo in doubt) [Compound 5009, 2-[4-(4-Isobutyl-2-methyl-5-oxo-tetrahydro-furan-2-yl)-thiazol-2-ylcarbamoyl]-pyrrolidine-1-carboxylic acid benzyl ester] was tested. Which inhibition at 10 µM did it give?
A: Its inhibition at 10 µM is 63.4%.

Q: With `CC1(C)CC(c2csc(NC(=O)[C@@H]3CCCN3C(=O)OCc3ccccc3)n2)CCO1` (stereo in doubt) [Compound 5046, 2-[4-(2,2-Dimethyl-tetrahydro-pyran-4-yl)-thiazol-2-ylcarbamoyl]-pyrrolidine-1-carboxylic acid benzyl ester] as the molecule, how does the inhibition at 10 µM read?
A: The inhibition at 10 µM was 8.29%.

Q: For `O=C(NC1CC1)c1ccc(-c2csc(NC(=O)[C@@H]3CCCN3C(=O)COc3ccccc3)n2)cc1` (stereo in doubt) [Compound 5331, 1-(2-Phenoxy-acetyl)-pyrrolidine-2-carboxylic acid [4-(4-cyclopropylcarbamoyl-phenyl)-thiazol-2-yl]-amide], which inhibition at 10 µM is on record?
A: The inhibition at 10 µM was 43%.

Q: How did the inhibition at 10 µM turn out when `CC(C)(C)OC(=O)N1CCCC(NC(=O)c2ccc(-c3csc(NC(=O)[C@@H]4CCCN4C(=O)OCc4ccccc4)n3)cc2)C1` (stereo in doubt) [Compound 5365, 3-(4-{2-[(1-Benzyloxycarbonyl-pyrrolidine-2-carbonyl)-amino]-thiazol-4-yl}-benzoylamino)-piperidine-1-carboxylic acid tert-butyl ester] was run?
A: The inhibition at 10 µM was 99.9%.

Q: `Nc1cccc(-c2csc(NC(=O)C3CCCN3C(=O)OCc3ccccc3)n2)c1` (stereo not drawn) [Compound 5001, 2-[4-(3-Amino-phenyl)-thiazol-2-ylcarbamoyl]-pyrrolidine-1-carboxylic acid benzyl ester] was tested. Which inhibition at 10 µM did it give?
A: Its inhibition at 10 µM is 99.6%.

Q: For `O=C(Nc1nc(-c2ccc3c(c2)OCO3)cs1)[C@@H]1CCCN1C(=O)OCc1ccccc1` [Compound 5002, 2-(4-Benzo[1,3]dioxol-5-yl-thiazol-2-ylcarbamoyl)-pyrrolidine-1-carboxylic acid benzyl ester], which inhibition at 10 µM is on record?
A: The inhibition at 10 µM was 94.7%.

Q: With `O=C(Nc1nc(CCc2ccccc2)cs1)[C@@H]1CCCN1C(=O)OCc1ccccc1` [Compound 5003, 2-(4-Phenethyl-thiazol-2-ylcarbamoyl)-pyrrolidine-1-carboxylic acid benzyl ester] as the molecule, how does the inhibition at 10 µM read?
A: The inhibition at 10 µM was 99.9%.

Q: Which inhibition at 10 µM does the source give for `CS(=O)(=O)Nc1ccc(-c2csc(NC(=O)C3CCCN3C(=O)OCc3ccccc3)n2)cc1` (stereo not drawn) [Compound 5004, 2-[4-(4-Methanesulfonylamino-phenyl)-thiazol-2-ylcarbamoyl]-pyrrolidine-1-carboxylic acid benzyl ester] here?
A: Its inhibition at 10 µM is 99.9%.

Q: Which inhibition at 10 µM does the source give for `Cc1ccc(S(=O)(=O)Nc2ccc(-c3csc(NC(=O)[C@@H]4CCCN4C(=O)OCc4ccccc4)n3)cc2)cc1` [Compound 5005, 2-{4-[4-(Toluene-4-sulfonylamino)-phenyl]-thiazol-2-ylcarbamoyl}-pyrrolidine-1-carboxylic acid benzyl ester] here?
A: The inhibition at 10 µM was 99.8%.

Q: For `O=C(Nc1ccc(-c2csc(NC(=O)C3CCCN3C(=O)OCc3ccccc3)n2)cc1)C1CCCC1` (stereo not drawn) [Compound 5006, 2-{4-[4-(Cyclopentanecarbonyl-amino)-phenyl]-thiazol-2-ylcarbamoyl}-pyrrolidine-1-carboxylic acid benzyl ester], which inhibition at 10 µM is on record?
A: Its inhibition at 10 µM is 99.9%.

Q: Which inhibition at 10 µM does the source give for `O=C(Nc1nc(-c2cc3ccccc3oc2=O)cs1)[C@@H]1CCCN1C(=O)OCc1ccccc1` [Compound 5007, 2-[4-(2-Oxo-2H-chromen-3-yl)-thiazol-2-ylcarbamoyl]-pyrrolidine-1-carboxylic acid benzyl ester] here?
A: Its inhibition at 10 µM is 100%.

Q: With `O=C(Nc1nc(-c2cccc([N+](=O)[O-])c2)cs1)[C@@H]1CCCN1C(=O)OCc1ccccc1` [Compound 5008, 2-[4-(3-Nitro-phenyl)-thiazol-2-ylcarbamoyl]-pyrrolidine-1-carboxylic acid benzyl ester; hydrobromide] as the molecule, how does the inhibition at 10 µM read?
A: Its inhibition at 10 µM is 63%.

Q: How did the inhibition at 10 µM turn out when `O=C(Nc1nc(Sc2nnc(-c3ccccc3)o2)cs1)[C@@H]1CCCN1C(=O)OCc1ccccc1` [Compound 5010, 2-[4-(5-Phenyl-[1,3,4]oxadiazol-2-ylsulfanyl)-thiazol-2-ylcarbamoyl]-pyrrolidine-1-carboxylic acid benzyl ester] was run?
A: Its inhibition at 10 µM is 6.41%.

Q: With `CCCOc1ccc(-c2cnc(NC(=O)[C@@H]3CCCN3C(=O)OCc3ccccc3)s2)cc1` [Compound 5011, 2-[5-(4-Propoxy-phenyl)-thiazol-2-ylcarbamoyl]-pyrrolidine-1-carboxylic acid benzyl ester] as the molecule, how does the inhibition at 10 µM read?
A: The inhibition at 10 µM was 32.9%.

Q: For `O=C(Nc1ncc(Cc2cccc(Cl)c2Cl)s1)[C@@H]1CCCN1C(=O)OCc1ccccc1` [Compound 5012, 2-[5-(2,3-Dichloro-benzyl)-thiazol-2-ylcarbamoyl]-pyrrolidine-1-carboxylic acid benzyl ester], which inhibition at 10 µM is on record?
A: Its inhibition at 10 µM is 1.01%.

Q: For `CN(C)c1ccc(-c2csc(NC(=O)C3CCCN3C(=O)OCc3ccccc3)n2)cc1` (stereo not drawn) [Compound 5013, 2-[4-(4-Dimethylamino-phenyl)-thiazol-2-ylcarbamoyl]-pyrrolidine-1-carboxylic acid benzyl ester], which inhibition at 10 µM is on record?
A: Its inhibition at 10 µM is 97%.

Q: `O=C(Nc1nc(-c2c(F)c(F)c(F)c(F)c2-c2ccccc2)cs1)[C@@H]1CCCN1C(=O)OCc1ccccc1` [Compound 5014, 2-[4-(3,4,5,6-Tetrafluoro-biphenyl-2-yl)-thiazol-2-ylcarbamoyl]-pyrrolidine-1-carboxylic acid benzyl ester] was tested. Which inhibition at 10 µM did it give?
A: Its inhibition at 10 µM is 66.6%.

Q: For `CC(=O)Nc1cccc(-c2csc(NC(=O)[C@@H]3CCCN3C(=O)OCc3ccccc3)n2)c1` [Compound 5015, 2-[4-(3-Acetylamino-phenyl)-thiazol-2-ylcarbamoyl]-pyrrolidine-1-carboxylic acid benzyl ester], which inhibition at 10 µM is on record?
A: Its inhibition at 10 µM is 99.4%.

Q: Which inhibition at 10 µM does the source give for `COc1ccc(-c2csc(NC(=O)[C@@H]3CCCN3C(=O)OCc3ccccc3)n2)cc1Br` [Compound 5016, 2-[4-(3-Bromo-4-methoxy-phenyl)-thiazol-2-ylcarbamoyl]-pyrrolidine-1-carboxylic acid benzyl ester] here?
A: The inhibition at 10 µM was 100%.

Q: How did the inhibition at 10 µM turn out when `CCC(=O)Nc1ccc(-c2csc(NC(=O)[C@@H]3CCCN3C(=O)OCc3ccccc3)n2)cc1` [Compound 5017, 2-[4-(4-Propionylamino-phenyl)-thiazol-2-ylcarbamoyl]-pyrrolidine-1-carboxylic acid benzyl ester] was run?
A: Its inhibition at 10 µM is 99.7%.

Q: Which inhibition at 10 µM does the source give for `O=C(Nc1ccc(-c2csc(NC(=O)C3CCCN3C(=O)OCc3ccccc3)n2)cc1)C1CC1` (stereo not drawn) [Compound 5018, 2-{4-[4-(Cyclopropanecarbonyl-amino)-phenyl]-thiazol-2-ylcarbamoyl}-pyrrolidine-1-carboxylic acid benzyl ester] here?
A: The inhibition at 10 µM was 100%.

Q: For `O=C(Nc1cccc(-c2csc(NC(=O)C3CCCN3C(=O)OCc3ccccc3)n2)c1)c1ccccc1` (stereo not drawn) [Compound 5019, 2-[4-(3-Benzoylamino-phenyl)-thiazol-2-ylcarbamoyl]-pyrrolidine-1-carboxylic acid benzyl ester], which inhibition at 10 µM is on record?
A: Its inhibition at 10 µM is 100%.
